Assay results: ChEMBL document CHEMBL1201862, “PubChem BioAssay data set” (2004)
Activity calls are given as the source filed them.

How the values were obtained:
[1] = biological target: T1, Rac GTPase-activating protein 1 (Homo sapiens, UniProt Q9H0H5); assay: MgcRacGAP GTPase-activating activity inhibitors, confirmation, biochemical, ADP Hunter fluorescence, primary and confirmatory (AID 624330); type: functional
T1 sequence (Q9H0H5 whole entry): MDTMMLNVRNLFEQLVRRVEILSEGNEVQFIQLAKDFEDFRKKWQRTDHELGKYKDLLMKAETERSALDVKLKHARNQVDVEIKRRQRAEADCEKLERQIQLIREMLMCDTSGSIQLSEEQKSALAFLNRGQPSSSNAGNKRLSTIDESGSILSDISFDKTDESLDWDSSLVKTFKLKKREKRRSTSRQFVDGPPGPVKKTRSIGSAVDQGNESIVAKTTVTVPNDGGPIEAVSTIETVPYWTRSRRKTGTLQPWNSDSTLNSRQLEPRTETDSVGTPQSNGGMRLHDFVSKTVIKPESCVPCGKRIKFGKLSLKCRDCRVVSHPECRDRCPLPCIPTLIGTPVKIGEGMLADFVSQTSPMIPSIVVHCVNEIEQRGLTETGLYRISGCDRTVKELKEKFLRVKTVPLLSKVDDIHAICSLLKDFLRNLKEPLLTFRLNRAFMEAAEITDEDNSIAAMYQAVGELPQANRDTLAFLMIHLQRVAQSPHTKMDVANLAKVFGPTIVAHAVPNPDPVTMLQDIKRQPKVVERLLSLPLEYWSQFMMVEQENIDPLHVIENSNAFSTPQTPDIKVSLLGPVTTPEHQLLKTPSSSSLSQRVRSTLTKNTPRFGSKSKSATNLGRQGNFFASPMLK

[2] = growth suppression of PTEN-null colon cells, dose response, cell-based, HCT116 PTEN knockout (AID 1047); type: functional;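 also: HCT116 colon tumor cells with PTEN knocked out; cells exposed to compound for 60 hours before readout; potency for loss of cell viability measured by luminescence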
[3] = HeLa cell cytotoxicity, dose response, cytotoxicity control for MgcRacGAP inhibitor project (AID 624300); type: functional
Nonstructural protein 1 = Nonstructural protein 1 (Influenza A virus, UniProt Q194T2); type: functional, Influenza A virus (A/California/07/2009(H1N1))
[4] = enhancers of respiration in Yfh1-depleted yeast, dose response, Friedreich's ataxia, plus single-dose screen (AID 1465); type: functional;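 also: yeast depleted of Yfh1p frataxin homolog grown on glycerol needing respiration; WST-1 tetrazolium dye reduction as measure of cellular dehydrogenase metabolic activity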
[5] = growth suppression of beta-catenin-knockout colon cells, dose response, cell-based, HCT116, human colon tumor (AID 1045); type: functional;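 also: HCT116 colon tumor cells with beta catenin knocked out; cells exposed to compound for 60 hours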
[6] = THP-1 cell cytotoxicity, dose response, cytotoxicity control for Vif-APOBEC3G degradation inhibitor project, THP-1 cells (AID 1117359); type: functional; conditions: Human immunodeficiency virus 1, THP-1
[7] = biological target: Glutathione-S-transferase (Schistosoma japonicum, UniProt Q26513); assay: biotin-GST/anti-GST TR-FRET signal inhibitors, dose response, artefact control for Vif-APOBEC3G degradation inhibitor project, biochemical (AID 1117362); type: functional
Protein skinhead-1 = biological target: T2, Protein skinhead-1 (Caenorhabditis elegans, UniProt P34707); type: functional
T2 sequence (P34707 whole entry): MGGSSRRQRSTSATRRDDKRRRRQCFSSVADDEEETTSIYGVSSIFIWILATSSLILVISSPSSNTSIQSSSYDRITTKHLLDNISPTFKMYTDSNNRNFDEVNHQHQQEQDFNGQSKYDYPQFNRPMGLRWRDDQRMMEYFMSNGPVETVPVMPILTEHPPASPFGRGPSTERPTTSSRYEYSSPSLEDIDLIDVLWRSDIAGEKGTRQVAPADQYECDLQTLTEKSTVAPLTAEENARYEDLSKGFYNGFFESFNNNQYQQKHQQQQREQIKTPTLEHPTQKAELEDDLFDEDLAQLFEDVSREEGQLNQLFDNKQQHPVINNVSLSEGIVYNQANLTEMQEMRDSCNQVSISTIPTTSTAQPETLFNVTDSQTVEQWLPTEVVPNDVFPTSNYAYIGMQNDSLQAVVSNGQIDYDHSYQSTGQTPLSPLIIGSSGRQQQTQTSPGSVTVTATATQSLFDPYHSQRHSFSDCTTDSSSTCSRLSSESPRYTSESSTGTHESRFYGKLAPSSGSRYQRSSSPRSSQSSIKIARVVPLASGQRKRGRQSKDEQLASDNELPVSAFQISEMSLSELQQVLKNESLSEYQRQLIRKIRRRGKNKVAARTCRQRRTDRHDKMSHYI

[8] = cytotoxicity in HEK-293T NF-kB-Luc cells, dose response, cytotoxicity control for B/T-cell NF-kB inhibitor project, cell-based, uHTS hits (AID 489019); type: functional;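 also: IC50 reflects cytotoxicity as loss of cell viability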
[9] = Vero cell cytotoxicity, dose response, cytotoxicity control for Vif-APOBEC3G degradation inhibitor project, Vero cells (AID 1117358); type: functional; conditions: Human immunodeficiency virus 1, Vero
[10] = NIH-3T3 fibroblast cytotoxicity, dose response, cytotoxicity control, cell-based, fluorescence, Alamar Blue, secondary assay (AID 2327); type: functional;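 also: NIH-3T3 mouse fibroblasts cultured with fluconazole at 8 µg/mL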
[11] = biological target: Sphingosine 1-phosphate receptor 2 (Homo sapiens, UniProt O95136); assay: Dose Response Cell Based Assay for Antagonists of the S1P2 Receptor. [Related pubchem assays: 856, 736 ]; type: functional
INS1 = assay: beta cell apoptosis inhibitors, cytokine rescue, dose response, luminescence, retest (AID 449756); type: functional, cell-based; conditions: Rattus norvegicus;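 also: cell death triggered by IL-1 beta plus TNF-alpha plus IFN-gamma mixture; protective hits raise ATP signal compared with cytokine alone wells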
[12] = C. albicans growth with fluconazole, confirmation, fluorescence, retest (AID 2467); type: functional, cell-based
Jurkat = assay: antigen receptor-induced NF-kB inhibitors, dose response, Jurkat, luciferase reporter, luminescence, B- and T-cell (AID 489004); type: functional, cell-based; conditions: Homo sapiens;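 also: NF-kB luciferase reporter Jurkat cells stimulated with PMA plus ionomycin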
[13] = biological target: Signal transducer and activator of transcription 1-alpha/beta (Homo sapiens, UniProt P42224); assay: STAT1 signalling inhibitors, dose response, cell-based, NIH 3T3, luciferase reporter (AID 1396); type: functional
Chain of Signal transducer and activator of transcription 1-alpha/beta (P42224 whole entry): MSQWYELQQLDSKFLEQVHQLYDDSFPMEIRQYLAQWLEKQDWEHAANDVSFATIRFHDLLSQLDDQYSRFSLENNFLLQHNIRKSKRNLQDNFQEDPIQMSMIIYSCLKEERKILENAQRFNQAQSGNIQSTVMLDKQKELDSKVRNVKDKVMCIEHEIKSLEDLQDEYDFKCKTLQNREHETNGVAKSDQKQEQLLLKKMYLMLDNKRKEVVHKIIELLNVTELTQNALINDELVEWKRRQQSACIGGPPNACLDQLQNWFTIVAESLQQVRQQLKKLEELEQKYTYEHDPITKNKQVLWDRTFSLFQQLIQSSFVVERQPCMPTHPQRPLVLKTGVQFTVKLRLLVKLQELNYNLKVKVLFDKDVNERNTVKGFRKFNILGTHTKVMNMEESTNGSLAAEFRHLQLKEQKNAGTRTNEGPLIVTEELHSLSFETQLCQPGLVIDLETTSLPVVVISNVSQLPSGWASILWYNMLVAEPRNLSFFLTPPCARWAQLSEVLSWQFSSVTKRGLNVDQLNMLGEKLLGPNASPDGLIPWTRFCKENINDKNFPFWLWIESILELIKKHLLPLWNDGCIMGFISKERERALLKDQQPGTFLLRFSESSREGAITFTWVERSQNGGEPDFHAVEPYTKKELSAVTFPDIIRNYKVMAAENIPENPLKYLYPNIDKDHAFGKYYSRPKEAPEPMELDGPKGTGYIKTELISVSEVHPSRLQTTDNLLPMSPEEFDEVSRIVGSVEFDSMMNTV

Chain of Nonstructural protein 1 (Q194T2 whole entry): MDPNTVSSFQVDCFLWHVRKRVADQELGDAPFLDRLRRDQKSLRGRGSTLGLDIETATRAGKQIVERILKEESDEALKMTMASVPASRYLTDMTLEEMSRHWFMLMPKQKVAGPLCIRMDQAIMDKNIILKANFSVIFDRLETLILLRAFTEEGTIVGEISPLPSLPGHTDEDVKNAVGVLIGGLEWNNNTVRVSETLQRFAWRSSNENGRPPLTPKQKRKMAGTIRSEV
Chain of Sphingosine 1-phosphate receptor 2 (O95136 whole entry): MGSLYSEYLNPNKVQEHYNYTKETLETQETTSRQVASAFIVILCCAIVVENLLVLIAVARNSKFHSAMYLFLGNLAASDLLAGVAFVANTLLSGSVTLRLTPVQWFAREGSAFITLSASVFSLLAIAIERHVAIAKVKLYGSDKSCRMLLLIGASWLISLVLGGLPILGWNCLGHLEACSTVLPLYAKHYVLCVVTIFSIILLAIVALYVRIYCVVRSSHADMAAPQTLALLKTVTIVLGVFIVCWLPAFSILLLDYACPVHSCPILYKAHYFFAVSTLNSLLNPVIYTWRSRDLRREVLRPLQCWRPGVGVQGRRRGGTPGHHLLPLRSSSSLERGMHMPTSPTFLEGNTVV
Chain of Glutathione-S-transferase (Q26513 whole entry): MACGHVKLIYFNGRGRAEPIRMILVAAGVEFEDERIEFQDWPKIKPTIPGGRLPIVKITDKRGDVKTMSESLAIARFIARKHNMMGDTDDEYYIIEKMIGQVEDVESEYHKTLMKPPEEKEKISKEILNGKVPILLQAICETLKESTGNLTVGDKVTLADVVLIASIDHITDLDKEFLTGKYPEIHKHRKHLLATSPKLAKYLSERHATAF

CN(C)c1ccc(/N=C/C=C2/N(C)c3ccccc3C2(C)C)cc1
IC50 [1]: 20.6 µM (active) | EC50 [2]: 39 µM (active) | CC50 [3]: 100 µM (active) | IC50 (Nonstructural protein 1): 16.1 µM (active) | EC50 [4]: > 100 µM (active) | EC50 [5]: 39 µM (active) | CC50 [6]: 17.5 µM (active) | IC50 [7]: 44.9 µM (active)

CCCCCCCCNc1ncnc2ccccc12
IC50 (Protein skinhead-1): 33 µM (active) | IC50 [8]: > 80 µM (inactive) | CC50 [9]: > 40 µM (active) | EC50 [10]: > 160 µM (inactive) | IC50 [11]: 1.23 µM (active) | AC50 (INS1): 0.232 µM (active) | EC50 [12]: 3.26 µM (active) | IC50 (Jurkat): > 80 µM (inactive)

CCOC(=O)C(/C=N/c1cc(C)nn1-c1ccccc1)=C(/O)OCC
IC50 [13]: 6.37 µM (active)
